Data reported in patent publication US9839622B2, “Methods of treating hypothalamic obesity” (Zafgen, Inc., priority 2012, dated 2017).

Legend:
[1] = Mouse model of hypothalamic injury (gold thioglucose); type: in vivo, C57/BL6 mice; conditions: 0.1 mg/kg daily subcutaneous
Procedure: FIG. 1 depicts body weight change (percent) of C57/BL6 mice treated with single dose of 0.5 g/kg gold thioglucose, and after 40 days, started on 0.1 mg/kg daily subcutaneous dose of 6-O-(4-dimethylaminoethoxy)cinnamoyl fumagillol (ZGN-440). FIG. 2 depicts normalized food intake in GTG mice to the level of normal mice that were not treated with gold thioglucose, after 0.1 mg/kg daily subcutaneous dose of 6-O-(4-dimethylaminoethoxy)cinnamoyl fumagillol. Gold thioglucose (GTG) is a chemical treatment used as a model of hypothalamic injury. C57/BL6 mice were treated with single dose of 0.5 g/kg gold thioglucose. After 40 days a cohort was started on 0.1 mg/kg daily subcutaneous dose of 6-O-(4-dimethylaminoethoxy)cinnamoyl fumagillol (ZGN-440). […] (FIG. 1). The food intake level of GTG treated mice was increased to over 3 g/day/mouse, where in GTG mice treated with ZGN-440 the food intake decreased to the level of normal mice that were not treated with gold thioglucose (below 3 g/day). (FIG. 2).

[2] = Treatment of obese humans also taking anti-depressants known to cause hypothalamic obesity; type: in vivo, human; conditions: obese humans on anti-depressants, average dose 1.44 mg twice weekly subcutaneous
Procedure: FIG. 3 depicts percentage reduction in body weight by up to seven weeks of treatment with 6-O-(4-dimethylaminoethoxy)cinnamoyl fumagillol (ZGN-440; average dose of 1.44 mg administered twice weekly by subcutaneous administration, n=5) or placebo (administered twice weekly by subcutaneous administration, n=2) in obese human patients treated otherwise for depression with mirtazapine, sertraline, imipramine, paroxetine, or amitryptyline.
Five of these patients were also administered ZGN-440 (average dose of 1.44 mg, administered twice weekly by subcutaneous administration). On average, patients lost 5.4 percent of their baseline body weight over the seven week treatment. […] At baseline, the average (±SEM) body weight was 100.2±3.2 kg, and the average body mass index was 38.8±1.7 kg/m^2. […] (FIG. 3).

In the case of `CO[C@@H]1[C@H](OC(=O)/C=C/c2ccc(OCCN(C)C)cc2)CC[C@]2(CO2)[C@H]1[C@@]1(C)O[C@@H]1CC=C(C)C` [ZGN-440, 6-O-(4-dimethylaminoethoxy)cinnamoyl fumagillol], the body weight change ([1]; GTG (0.5 g/kg single dose) C57/BL6 mice, started after 40 days, FIG. 1) is reported as “Significant weight loss”, the food intake ([1]; GTG mice, untreated GTG mice over 3 g/day/mouse, FIG. 2) is reported as “below 3 g/day” and the “loss of baseline body weight (average)” value ([2]; n=5, seven week treatment, FIG. 3) is reported as 5.4%. The “weight loss vs. placebo (percent change of body weight from baseline, Student's t test)” value ([2]; up to seven weeks, placebo failed to lose weight) was “statistically significant”.
